“And” between values parts separate entries of the source, which are not always exact repeats. Equal entries are not always repeated.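 Exposure lasted 48 hours, with cells grown in 96-well plates and compounds tested at five concentrations. TGI marks complete inhibition of growth.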
Experiments:
Test in all cases: NCI-60 cell line screen, 48 h
[1] = test system: ACHN renal
[2] = test system: A498 renal
[3] = test system: EKVX NSCLC
[4] = test system: BT-549 breast
[5] = test system: MCF7 breast
[6] = test system: SF-539 CNS
[7] = test system: HS 578T breast
[8] = test system: LOX IMVI melanoma
[9] = test system: SK-MEL-5 melanoma
[10] = test system: KM20L2 colon
[11] = test system: M19-MEL melanoma
[12] = test system: DLD-1 colon

Question: How did the TGI [1] turn out when `CCOC(=O)Nc1cc2c(c(N)n1)N=C(c1ccc3ccccc3c1)CN2` was run?
Answer: > 83.3 µM

Question: And the TGI [2]?
Answer: 35.2 µM

Question: What about the TGI [3] of the same compound?
Answer: > 100 µM

Question: What about the TGI [4] of the same compound?
Answer: > 57.8 µM

Question: And the TGI [5]?
Answer: > 100 µM

Question: What about the TGI [6] of the same compound?
Answer: 0.427 µM

Question: What about the TGI [7] of the same compound?
Answer: 3.16 µM

Question: And the TGI [8]?
Answer: 8.1 µM

Question: And the TGI [9]?
Answer: 4.69 µM

Question: `COC(=O)NC1C(C)OC(OC2C/C=C(/C)C3C=CC4C(OC5CC(OC6CC(OC7CC(O)C(O)C(C)O7)C(OC7CC(O)C(OC)C(C)O7)C(C)O6)C(O)C(C)O5)C(C)CC(C)C4C3(C)/C(O)=C3\C(=O)OC4(CC(C)C(CO)=CC4/C=C\2C)C3=O)CC1(C)[N+](=O)[O-]` (stereo not given) was tested. Which TGI [1] did it give?
Answer: 27.2 µM

Question: And the TGI [2]?
Answer: 57.9 µM

Question: And the TGI [3]?
Answer: 42.8 µM

Question: What about the TGI [4] of the same compound?
Answer: 89.5 µM

Question: What about the TGI [5] of the same compound?
Answer: > 100 µM

Question: And the TGI [6]?
Answer: > 100 µM

Question: What about the TGI [7] of the same compound?
Answer: > 100 µM

Question: What about the TGI [8] of the same compound?
Answer: 14.8 µM

Question: And the TGI [9]?
Answer: > 100 µM

Question: `Nc1nc(OCC2CCCCC2)c2[nH]cnc2n1` was tested. Which TGI [1] did it give?
Answer: 38.4 µM

Question: What about the TGI [2] of the same compound?
Answer: 54.4 µM

Question: What about the TGI [3] of the same compound?
Answer: 61.9 µM

Question: And the TGI [4]?
Answer: > 72.9 µM

Question: And the TGI [5]?
Answer: > 100 µM

Question: What about the TGI [6] of the same compound?
Answer: 45 µM

Question: And the TGI [7]?
Answer: > 44.5 µM

Question: And the TGI [8]?
Answer: 37.7 µM

Question: And the TGI [9]?
Answer: 67.2 µM

Question: Which results are given for `COC(=O)/C=C1\CCCN1CCc1cc2c(cc1CC#N)OCO2`?
Answer: TGI [1]: > 100 µM; TGI [2]: 80.2 µM; TGI [3]: > 100 µM; TGI [4]: > 100 µM; TGI [5]: > 100 µM; TGI [6]: > 100 µM; TGI [7]: > 100 µM; TGI [8]: > 100 µM; TGI [9]: 81.2 µM

Question: Which TGI [1] does the source give for `CS(=O)(=O)OCCN(CCOS(C)(=O)=O)c1ccc(/C=N/Nc2ncnc3nc[nH]c23)cc1` here?
Answer: 97.2 µM

Question: And the TGI [10]?
Answer: 58 µM

Question: And the TGI [2]?
Answer: 60.6 µM

Question: And the TGI [11]?
Answer: 51 µM

Question: And the TGI [3]?
Answer: 78.4 µM

Question: And the TGI [12]?
Answer: 74.9 µM

Question: What about the TGI [6] of the same compound?
Answer: 49.4 µM

Question: What about the TGI [8] of the same compound?
Answer: 37.7 µM

Question: What about the TGI [9] of the same compound?
Answer: 31.7 µM

Question: `O=C(CSc1nc2ccc(I)cc2c(=O)n1Cc1ccccc1)NN1C(=O)c2ccccc2C1=O` was tested. Which TGI [1] did it give?
Answer: 68.9 µM

Question: And the TGI [2]?
Answer: 35.7 µM

Question: What about the TGI [3] of the same compound?
Answer: 42.2 µM

Question: What about the TGI [4] of the same compound?
Answer: 36.2 µM

Question: What about the TGI [5] of the same compound?
Answer: > 100 µM

Question: And the TGI [6]?
Answer: 15.5 µM

Question: What about the TGI [7] of the same compound?
Answer: 43.1 µM

Question: And the TGI [8]?
Answer: 44.9 µM

Question: And the TGI [9]?
Answer: 68.6 µM

Question: For `Cc1[nH]n(-c2ccccc2)c(=O)c1C(N(CCc1ccccc1)C1=NCC(C)S1)(C(F)(F)F)C(F)(F)F` (stereo not given), which TGI [1] is on record?
Answer: 79.3 µM

Question: And the TGI [2]?
Answer: 30.9 µM

Question: What about the TGI [3] of the same compound?
Answer: 36.4 µM

Question: What about the TGI [4] of the same compound?
Answer: 49.1 µM

Question: And the TGI [5]?
Answer: > 100 µM

Question: And the TGI [6]?
Answer: 32.3 µM

Question: And the TGI [7]?
Answer: 88.4 µM

Question: What about the TGI [8] of the same compound?
Answer: > 100 µM

Question: And the TGI [9]?
Answer: 21.5 µM

Question: With `NCCNCCNc1ccc(NCCNCCN)c2c1C(=O)c1c(O)ccc(O)c1C2=O` as the compound, how does the TGI [1] read?
Answer: > 100 µM

Question: What about the TGI [2] of the same compound?
Answer: > 100 µM

Question: What about the TGI [3] of the same compound?
Answer: > 100 µM

Question: And the TGI [4]?
Answer: > 100 µM

Question: What about the TGI [5] of the same compound?
Answer: > 100 µM

Question: And the TGI [6]?
Answer: > 100 µM

Question: What about the TGI [7] of the same compound?
Answer: > 100 µM

Question: And the TGI [8]?
Answer: > 100 µM

Question: And the TGI [9]?
Answer: > 100 µM

Question: Which TGI [1] does the source give for `C[N+](C)(C)CCN[N+]1(C)CCCc2ccccc21` (stereo not given) here?
Answer: > 100 µM

Question: And the TGI [2]?
Answer: 35.1 µM

Question: And the TGI [3]?
Answer: > 100 µM

Question: What about the TGI [4] of the same compound?
Answer: > 100 µM

Question: What about the TGI [5] of the same compound?
Answer: > 100 µM

Question: And the TGI [6]?
Answer: > 100 µM

Question: What about the TGI [7] of the same compound?
Answer: > 100 µM

Question: What about the TGI [8] of the same compound?
Answer: > 100 µM

Question: What about the TGI [9] of the same compound?
Answer: > 100 µM

Question: Which results are given for `CCOP(=O)(OCC)C(Nc1cccc(F)c1)c1ccc(N(C)C)cc1` (stereo not given)?
Answer: TGI [1]: > 100 µM; TGI [2]: > 100 µM; TGI [3]: > 100 µM; TGI [4]: > 100 µM; TGI [5]: > 100 µM; TGI [6]: > 100 µM; TGI [7]: > 100 µM; TGI [8]: > 100 µM; TGI [9]: > 100 µM

Question: With `Cc1ccc(N=NC(C2=NC(=O)CS2)c2nc3ccccc3[nH]2)cc1` (stereo not given) as the compound, how does the TGI [1] read?
Answer: > 100 µM

Question: What about the TGI [10] of the same compound?
Answer: > 100 µM

Question: And the TGI [2]?
Answer: > 100 µM

Question: What about the TGI [11] of the same compound?
Answer: > 100 µM

Question: And the TGI [3]?
Answer: > 100 µM

Question: What about the TGI [12] of the same compound?
Answer: > 100 µM

Question: And the TGI [6]?
Answer: > 100 µM

Question: What about the TGI [9] of the same compound?
Answer: > 100 µM

Question: With `O=c1c2cc(S(=O)(=O)O)ccc2nc(COc2ccc(Oc3ccc(Cl)cc3Cl)cc2)n1C(=S)Nc1ccc(Cl)cc1` as the compound, how does the TGI [1] read?
Answer: 64.7 µM

Question: What about the TGI [2] of the same compound?
Answer: 52.5 µM

Question: What about the TGI [3] of the same compound?
Answer: 56.6 µM

Question: And the TGI [4]?
Answer: 45.2 µM

Question: And the TGI [5]?
Answer: 38.3 µM

Question: What about the TGI [6] of the same compound?
Answer: 31.9 µM

Question: What about the TGI [7] of the same compound?
Answer: 44.8 µM

Question: What about the TGI [8] of the same compound?
Answer: 32 µM

Question: What about the TGI [9] of the same compound?
Answer: 33.1 µM

Question: With `Cc1ccc([N+](=O)[O-])cc1S(=O)(=O)Nc1ccc(C2=NOC(c3ccccc3O)C2)cc1` (stereo not given) as the compound, how does the TGI [1] read?
Answer: > 100 µM

Question: What about the TGI [2] of the same compound?
Answer: 32.6 µM

Question: And the TGI [3]?
Answer: > 100 µM

Question: And the TGI [4]?
Answer: 60.3 µM

Question: What about the TGI [5] of the same compound?
Answer: 14 µM

Question: What about the TGI [6] of the same compound?
Answer: > 100 µM

Question: And the TGI [7]?
Answer: > 100 µM

Question: What about the TGI [8] of the same compound?
Answer: > 100 µM

Question: What about the TGI [9] of the same compound?
Answer: 49.4 µM

Question: For `CC(=O)OCC1OC(Oc2cc(C)c(O)cc2C/C=C(\C)CC/C=C(\C)C[C@@H](C=C(C)C)OC(C)=O)C(O)C(OC(C)=O)C1OC(C)=O` (stereo not given in full), which TGI [1] is on record?
Answer: > 50 µM

Question: What about the TGI [2] of the same compound?
Answer: 41.9 µM

Question: And the TGI [3]?
Answer: > 50 µM

Question: And the TGI [4]?
Answer: > 50 µM

Question: What about the TGI [5] of the same compound?
Answer: > 50 µM

Question: What about the TGI [7] of the same compound?
Answer: 39.2 µM

Question: And the TGI [8]?
Answer: 47.3 µM

Question: And the TGI [9]?
Answer: 18.7 µM

Question: For `CC1(C=O)CCC23COC4(CCC5C6(C)CCC(OC7OCC(OC8OC(CO)C(O)C(OC9OC(CO)C(O)C(O)C9O)C8OC8OCC(O)C(O)C8O)C(O)C7OC7OC(CO)C(O)C(O)C7O)C(C)(C)C6CCC5(C)C4(C)CC2O)C3C1` (stereo not given), which TGI [1] is on record?
Answer: 2.57 µM

Question: What about the TGI [2] of the same compound?
Answer: 1.94 µM

Question: And the TGI [3]?
Answer: 2.89 µM

Question: And the TGI [4]?
Answer: 3.06 µM

Question: And the TGI [5]?
Answer: 2.07 µM

Question: And the TGI [6]?
Answer: 2.63 µM

Question: And the TGI [7]?
Answer: 2.99 µM

Question: What about the TGI [9] of the same compound?
Answer: 2.96 µM

Question: How did the TGI [1] turn out when `c1c2c(cc3c1OCO3)-c1cc3ccc4c(c3c[n+]1CC2)OCO4` was run?
Answer: > 12.5 µM

Question: What about the TGI [2] of the same compound?
Answer: > 12.5 µM

Question: What about the TGI [3] of the same compound?
Answer: > 12.5 µM

Question: What about the TGI [4] of the same compound?
Answer: > 12.5 µM

Question: What about the TGI [5] of the same compound?
Answer: > 12.5 µM

Question: And the TGI [6]?
Answer: 3.12 µM

Question: What about the TGI [7] of the same compound?
Answer: > 12.5 µM

Question: What about the TGI [8] of the same compound?
Answer: > 8.44 µM

Question: And the TGI [9]?
Answer: > 5 µM

Question: Which results are given for `CN(C)CCCN1c2ccc([N+](=O)[O-])cc2CCc2cc([N+](=O)[O-])ccc21`?
Answer: TGI [1]: 23.5 µM and 29 µM; TGI [2]: 22.5 µM; TGI [3]: 28.5 µM and 29.4 µM; TGI [4]: 29.2 µM; TGI [5]: 31.2 µM; TGI [6]: 30.6 µM and 37.8 µM; TGI [7]: 34.4 µM and 35.6 µM; TGI [8]: 32.4 µM and 26.5 µM; TGI [9]: 29.5 µM and 23.1 µM
